Measurements: patent US9539341B2, “Methods and compositions for targeting adipose cells in mammals” (Board of Regents, the University of Texas System, priority 2011, dated 2017)
Entries after “also recorded” stand apart in the source; their conditions may differ.

Assays:
[1] = system: C34+CD31−CD45− cells isolated from WAT; assay: In vivo competition (re-homing) assay of 11 admixed phage clones, WAT; design: species or system mouse; details: equal amounts of 11 phage clones mixed and injected; percent of sequenced clones on C34+CD31−CD45− cells from WAT
Description: (§1) For competitive homing experiment, 5×10^9 TU for each of the 11 chosen phage clones were admixed and the combined 5.5×10^10 TU was injected. For validation of individual clones, 1×10^10 TU for each phage clones was injected. After 1 hr of circulation and heart perfusion with 10 ml of phosphate buffer saline (PBS), WAT, tibia/femurs, bone-associated skeletal muscle, and lungs were collected. Bone marrow was isolated by flushing tibia/femurs. Hematopoietic and endothelial cells were depleted from cell suspensions of each organ by Dynabeads (Invitrogen) coated with anti-TER119, anti-CD31, and anti-CD45 antibodies (BD Biosciences), after which the remaining cells were processed by FACS to purify CD34+CD31−CD45− cells. Bound phage were recovered by infecting K91 E. coli, quantified by phage transforming unit (TU) counting, and processed for sequencing of the peptide-coding DNA as described in Arap, et al. 2002, ibid and Kolonin, et al., 2006, ibid. For identification of conserved peptide motifs, ClustalW2 software was used.
(§2) After 4 rounds of synchronous in vivo biopanning, eight CX7C and CX8C sequences repeatedly recovered from ASC with frequency above 1% were identified, which were termed WAT1 through WAT8 (see Table 1 below). In parallel, a matched number of peptide inserts homing to lung stromal cells (LSC) were sequenced as a control. None of the WAT-homing peptides were enriched in the lung. Four sequences repeatedly recovered in the lung with frequency above 1%, were termed LU1 through LU4 (see Table 1 below). […] Because the focus of this study is WAT-specific MSC, this clone was excluded from further analysis. Other selected peptides were subjected to an in vivo competition assay in order to identify those with the highest specificity of binding. Equal amounts of phage for the 11 clones displaying peptides WAT1 through WAT7 (SEQ ID NOS: 1-14) and LU1 through LU4 (SEQ ID NOS: 17-24) were admixed and injected into a mouse. Homing specificity of each clone was assessed by quantifying frequency of phage coding for each peptide selected on C34+CD31−CD45− cells isolated from either WAT or lung.

[2] = system: CD34+CD31−CD45− cells (MSC) from WAT; assay: Synchronous in vivo phage display biopanning, clones recovered from WAT MSC (ASC); design: species or system mouse; details: percent of sequenced phage clones carrying the insert in WAT after 4 rounds of synchronous in vivo biopanning on CD34+CD31−CD45− cells
Source text: (§3) Phage Library Screening: Random peptide libraries based on the M13-derived bacteriophage vector fUSE5 displaying inserts CX7C, CX8C, and CX9C on the pIII protein were admixed (1:1:1) to the combined 10^10 TU of mixed library for the screen performed based on the synchronous biopanning in vivo upon tail vein injection (see for example, US20050074747 and Arap, et al., Nat. Med. 8:121-127, 2002; Kolonin, et al., FASEB J. 20: 979-981, 2006).
as §1
(§4) Methods for isolation of MSC by fluorescence-activated cell sorting (FACS) from organ cell suspensions based on the C34+CD31−CD45− immunophenotype (FIG. 8B) were combined with phage display and optimized for ASC. By adapting the previously described “synchronous in vivo biopanning” method of (Kolonin et al., 2006, ibid), a mixture of cyclic CX7C, CX8C, and CX9C (C: disulfide-bonded cysteines; X: any amino acid) random peptide libraries was screened (FIG. 1A). This approach made it possible to select MSC probes from the pool of over 10^11 combinatorial peptides. Throughout the screen, progressive enrichment in the number of phage particles recovered on MSC from WAT, as well as from the chosen control organs: lung, bone marrow, and skeletal muscle (FIG. 1B) was observed.
as §2
(§5) Shown in Table 1 above are the percent (%) of the sequenced phage clones that carried the indicated WAT or LU insert present within WAT (% in WAT) or lung (% in LUNG) following 4 rounds of synchronous in vivo biopanning on CD34+CD31−CD45− cells.

[3] = system: CD34+CD31−CD45− cells (MSC) from lung; assay: Synchronous in vivo phage display biopanning, clones recovered from lung MSC (LSC); design: species or system mouse; details: percent of sequenced phage clones carrying the insert in lung after 4 rounds of synchronous in vivo biopanning on CD34+CD31−CD45− cells
Source text: as §3, §1, §4, §2, §5

[4] = system: C34+CD31−CD45− cells isolated from lung; assay: In vivo competition (re-homing) assay of 11 admixed phage clones, lung; design: species or system mouse; details: equal amounts of 11 phage clones mixed and injected; percent of sequenced clones on C34+CD31−CD45− cells from lung
Description: as §1, §2

[5] = system: WAT CD34+CD31−CD45− cells (ASC) versus lung CD34+CD31−CD45− cells (LSC); assay: Homing of individual phage-peptide clones injected separately, TU on WAT vs lung MSC; type: in vivo, mouse; details: individual phage clones injected into mice, FIG. 1C
Source text: FIGS. 1A-C depict the screen for MSC-homing peptides. (A) depicts the schematic for a screen for peptides homing to organ-specific MSC populations. […] In every selection round, erythroid (TER119+), endothelial (CD31+) and hematopoietic (CD45+) cells were immunodepleted and then FACS was used to collect CD34+CD31−CD45− cells (MSC) from WAT, lung, bone marrow, and skeletal muscle. (B) Phage-peptides bound to WAT MSC (ASC), in parallel with phage-peptides bound to MSC of control organs, were quantified, amplified, pooled, and used for the next round of biopanning. Increased recovery of phage transforming units (TU) in successive rounds reflects the enrichment of phage-peptides homing to MSC of individual target organs. (C) Relative specificity of ASC homing assessed for individual phage-peptide clones separately injected into mice as a ratio of TU recovered on WAT to CD34+CD31−CD45− to TU recovered on lung CD34+CD31−CD45− cells. Fd-Tet: control insertless phage. Values shown are mean±SD for triplicate measurements.
For competitive homing experiment, 5×10^9 TU for each of the 11 chosen phage clones were admixed and the combined 5.5×10^10 TU was injected. […] Bound phage were recovered by infecting K91 E. coli, quantified by phage transforming unit (TU) counting, and processed for sequencing of the peptide-coding DNA as described in Arap, et al. 2002, ibid and Kolonin, et al., 2006, ibid. […]

[6] = system: perivascular WAT cells (PDGFRβ+ ASC); assay: Biodistribution of biotinylated synthetic cyclic peptide (streptavidin-Cy3), WAT; type: in vivo, mouse; details: biotinylated cyclic peptide i.v., 1 hr, CD31 / CD45 co-staining
Source text: (§6) FIGS. 2A-J depict the validation of cyclic WAT7 Peptide (SEQ ID NOS: 13) Homing to ASC. Panels A-D are confocal anti-phage (red) and anti-CD31 (bright green) immunofluorescence in paraffin sections of formalin-fixed WAT and lung from mice intravenously injected with phage displaying WAT-homing peptide WAT7 (SEQ ID NOS: 13 AND 14) or a lung-homing peptide LU2 (SEQ ID NOS: 19). […] upon digital channel merging indicates localization (arrow) of phage on non-endothelial perivascular cells observed for WAT7 (SEQ ID NOS: 13) in WAT (A) but not in lung (B), and for LU2 (SEQ ID NO: 19) in lung (D) but not in WAT (C). […] Note the association (arrow) of cyclic WAT7 (SEQ ID NOS: 13) specifically with perivascular WAT cells (E) in a pattern overlapping with PDGFRβ expressed on ASC (F-G). Like PDGFRβ, WAT7 is not associated with CD31+ endothelial cells (E) or CD45+ hematopoietic cells (H). WAT7 was not detected in lung (I) despite the abundance of PDGFRβ+LSC (J). Nuclear TOPRO3 staining is blue. Scale bar: 100 μM.
(§7) Mouse Tissue and Cell Analysis by Immunofluorescence: Peptides chemically synthesized, cyclized via their N- and C-terminal cysteines, purified to at least 95% purity (Genemed), and biotinylated were injected (500 μg) via tail vein and allowed to circulate for 1 hr. […] Fluorescence images were acquired with an Olympus IX70 inverted fluorescence microscope/Magnafire software (Olympus). […]

[7] = system: stroma/vasculature of lung; assay: Biodistribution of peptide-displaying phage by anti-phage immunofluorescence, lung; type: in vivo, mouse; details: intravenous injection, immunofluorescence of tissue sections
Source text: as §6, §7

co-localization with endothelial cells or CD45+ hematopoietic cells in WAT [6]	Molecule	Re-home to WAT (%) [1] [%]	% in WAT [2] [%]	% in LUNG [3] [%]	Re-home to Lung (%) [4] [%]	specificity of homing to ASC compared to lung MSC [5]	phage accumulation in lung [7]
	IRGKAGR [LU-4]	0	0	5.2	1.1		
	YEGSEVS [WAT-4]	0	2.9	0	2.9		
	GQWLGNWL [WAT-8]	0	13.6	0	13.6	modest preference for ASC	
did not co-localize	NCCCC[C@@H]1NC(=O)[C@H](Cc2c[nH]c3ccccc23)NC(=O)[C@H](CO)NC(=O)[C@@H](N)CSSC[C@@H](C(=O)O)NC(=O)[C@H](CCC(=O)O)NC(=O)CNC(=O)[C@H](Cc2ccccc2)NC(=O)[C@H](Cc2c[nH]c3ccccc23)NC(=O)[C@H](Cc2ccc(O)cc2)NC1=O [WAT-7, SWKYWFGE]						
	CWLGEWLGC [mPep]					modest preference for ASC; also recorded: did not display any WAT specificity	
	LGVGPGF [LU-3]	0	0	5.2	1.1		
	KHYGGGVA [WAT-1]	1.1	9.1	0	9.1		
	LRQGNPT [WAT-5]	0	1.9	0	1.9		
	AVYRSTG [LU-1]		0	71.6	52.2		
	RFLLPQG [WAT-3]	0	3.9	0	3.9		
	ESGFPTVG [LU-2, control]		0	14.7	40.2		associated with the stroma/vasculature of lung
	GSGGMSPS [WAT-6]	0	1.9	0	1.9		
